Test results: ChEMBL document CHEMBL1201862, “PubChem BioAssay data set” (2004)
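Growth conditions: 96-well plates. Treatment: test compound, 48 hours, 5 concentrations. Analysis: linear interpolation between bracketing concentrations; unreached endpoints set to highest concentration. At the GI50, growth is halved.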 Active and inactive are the calls of the source. No stated cut-off is given here; in the data, active = GI50 up to about 1.1 µM and inactive = higher.

How the values were obtained:
Assay in all cases: inhibition of tumour cell growth, NCI panel, 48 h
786-0 = test system: 786-0
A549 = test system: A549
BT-549 = test system: BT-549
COLO 205 = test system: COLO 205
EKVX = test system: EKVX
HOP-62 = test system: HOP-62
IGROV-1 = test system: IGROV-1
M14 = test system: M14
MDA-MB-435 = test system: MDA-MB-435
MDA-N = test system: MDA-N
NCI-H226 = test system: NCI-H226
NCI-H23 = test system: NCI-H23
NCI/ADR-RES = test system: NCI/ADR-RES
SK-MEL-2 = test system: SK-MEL-2
SNB-19 = test system: SNB-19
SR = test system: SR
SW-620 = test system: SW-620
U-251 = test system: U-251
HL-60 = test system: HL-60
UO-31 = test system: UO-31

| SMILES | GI50 (786-0) | GI50 (A549) | GI50 (BT-549) | GI50 (COLO 205) | GI50 (EKVX) | GI50 (HOP-62) | GI50 (IGROV-1) | GI50 (M14) | GI50 (MDA-MB-435) | GI50 (MDA-N) | GI50 (NCI-H226) | GI50 (NCI-H23) | GI50 (NCI/ADR-RES) | GI50 (SK-MEL-2) | GI50 (SNB-19) | GI50 (SR) | GI50 (SW-620) | GI50 (U-251) | GI50 (HL-60) | GI50 (UO-31) |
| --- | --- | --- | --- | --- | --- | --- | --- | --- | --- | --- | --- | --- | --- | --- | --- | --- | --- | --- | --- | --- |
| CCOC(=O)/C(=C\c1ccc(CO)o1)P(=O)(OCC)OCC | 19.7 µM (inactive) | > 100 µM (inactive) | 20.1 µM (inactive) | 23 µM (inactive) | > 100 µM (inactive) | 45.8 µM (inactive) | 37.2 µM (inactive) | 31.9 µM (inactive) | 29 µM (inactive) | 22.8 µM (inactive) | > 100 µM (inactive) | 22.3 µM (inactive) | 22.2 µM (inactive) | 25.2 µM (inactive) | 63.2 µM (inactive) | 41.9 µM (inactive) | 27.4 µM (inactive) | 42.4 µM (inactive) |  |  |
| CCOC(=O)c1nc2cc(C(F)(F)F)ccc2nc1Nc1cc(OC)c(OC)c(OC)c1 | > 100 µM (inactive) | > 100 µM (inactive) | > 100 µM (inactive) | > 100 µM (inactive) | > 100 µM (inactive) | > 100 µM (inactive) | > 100 µM (inactive) | > 100 µM (inactive) | > 100 µM (inactive) | > 100 µM (inactive) | > 100 µM (inactive) | > 100 µM (inactive) | > 100 µM (inactive) |  | > 100 µM (inactive) | > 100 µM (inactive) | > 100 µM (inactive) | > 100 µM (inactive) | > 100 µM (inactive) | > 100 µM (inactive) |
| CCCCCCCCCCCC1=C(O)C(=O)C(CC2=C(O)C(=O)C(CCCCCCCCCCC)=C(O)C2=O)=C(O)C1=O | 59.6 µM (inactive) | > 100 µM (inactive) | > 100 µM (inactive) | > 100 µM (inactive) | > 100 µM (inactive) |  | > 100 µM (inactive) | > 100 µM (inactive) | > 100 µM (inactive) | > 100 µM (inactive) | > 100 µM (inactive) | 54.6 µM (inactive) | > 100 µM (inactive) | > 100 µM (inactive) | 21.1 µM (inactive) | 19.2 µM (inactive) | > 100 µM (inactive) | 43.5 µM (inactive) | > 10 µM (inactive) | > 100 µM (inactive) |
| CC1CCC2(O)C3(C)CC4(O)OC2(C1O)C1(O)C3(O)C(OC(=O)c2ccc[nH]2)C(O)(C(C)C)C41C (stereo not given) | > 100 µM (inactive) | > 100 µM (inactive) | > 100 µM (inactive) | > 100 µM (inactive) | > 100 µM (inactive) | > 100 µM (inactive) | > 100 µM (inactive) | > 100 µM (inactive) | > 100 µM (inactive) | > 100 µM (inactive) | > 100 µM (inactive) | > 100 µM (inactive) | > 100 µM (inactive) | > 100 µM (inactive) | > 100 µM (inactive) |  | > 100 µM (inactive) | > 100 µM (inactive) | > 65.8 µM (inactive) | > 100 µM (inactive) |
| CCN(CC)CCC(=O)c1ccc(Oc2ccc(C)cc2)cc1 | 16.5 µM (inactive) | > 100 µM (inactive) | 18 µM (inactive) | 23.4 µM (inactive) | 20 µM (inactive) | 19.1 µM (inactive) | 20.1 µM (inactive) | 16.6 µM (inactive) | 18 µM (inactive) | 17.7 µM (inactive) | 35.2 µM (inactive) | 17.7 µM (inactive) | 23 µM (inactive) | 33.2 µM (inactive) | 18.5 µM (inactive) | 26.2 µM (inactive) | 18.7 µM (inactive) | 17 µM (inactive) |  |  |
| Fc1ccc(C(OCCN2CCC3CCC(C2)N3C/C=C/c2ccco2)c2ccc(F)cc2)cc1 (stereo not given) | 9.4 µM (inactive) | 12.5 µM (inactive) | 12.8 µM (inactive) | 1.69 µM (inactive) |  | 16.2 µM (inactive) | 6.5 µM (inactive) | 5.5 µM (inactive) | 10.7 µM (inactive) | 12.4 µM (inactive) | 13.2 µM (inactive) | 11.3 µM (inactive) | 7.4 µM (inactive) | 12.3 µM (inactive) | 15.7 µM (inactive) | 2.47 µM (inactive) | 7.96 µM (inactive) | 8.59 µM (inactive) |  | 15.1 µM (inactive) |
| O=C1Nc2cccc(Cl)c2/C1=C\c1c(-c2ccccc2)nc2n1CCS2 | 18 µM (inactive) | 18.6 µM (inactive) | 22.1 µM (inactive) | 18.8 µM (inactive) | 26.1 µM (inactive) | 25.9 µM (inactive) | 12.8 µM (inactive) | 20.9 µM (inactive) | 18.2 µM (inactive) | 18.5 µM (inactive) |  | 23.3 µM (inactive) | 16.3 µM (inactive) | 20.3 µM (inactive) | 26.6 µM (inactive) | 19.8 µM (inactive) | 14.9 µM (inactive) | 19.6 µM (inactive) | 16.3 µM (inactive) | 19.1 µM (inactive) |
| C=C(c1ccccc1)C1ON(C)CCc2cc(OC)c(OC)cc21 (stereo not given) | > 100 µM (inactive) | > 100 µM (inactive) | > 100 µM (inactive) | > 100 µM (inactive) | > 100 µM (inactive) | > 100 µM (inactive) | > 100 µM (inactive) | > 100 µM (inactive) | 84.9 µM (inactive) | > 100 µM (inactive) | > 100 µM (inactive) | 66.2 µM (inactive) | 48.4 µM (inactive) |  | > 100 µM (inactive) | 88.7 µM (inactive) | > 100 µM (inactive) | > 100 µM (inactive) | > 100 µM (inactive) | 81.5 µM (inactive) |
| COc1cc(/C=C2\S/C(=N/Nc3nc(-c4ccc(Br)cc4)cs3)NC2=O)cc(OC)c1OC | 9.44 µM (inactive) | 13.6 µM (inactive) | 7.82 µM (inactive) | 26.8 µM (inactive) | 7.8 µM (inactive) | 10.5 µM (inactive) | 12 µM (inactive) | 15.6 µM (inactive) | 15.5 µM (inactive) | 17.4 µM (inactive) | 4.09 µM (inactive) | 5.11 µM (inactive) | 15.9 µM (inactive) | 15.1 µM (inactive) | 4.74 µM (inactive) |  | 8.55 µM (inactive) | 2.99 µM (inactive) | 2.08 µM (inactive) | 3.91 µM (inactive) |
| CCc1c(Cc2cccc3ccccc23)n2c(nc1=O)SCC2OCCO (stereo not given) | > 100 µM (inactive) | 77.3 µM (inactive) | 41.7 µM (inactive) | > 100 µM (inactive) | 33.7 µM (inactive) |  | 24.7 µM (inactive) | > 100 µM (inactive) | 18.2 µM (inactive) | 40.8 µM (inactive) | > 100 µM (inactive) | 42.8 µM (inactive) | 81.5 µM (inactive) | > 100 µM (inactive) | > 100 µM (inactive) | 25.9 µM (inactive) | 70.5 µM (inactive) | 76.9 µM (inactive) | 36.9 µM (inactive) | > 100 µM (inactive) |
| O=C(O)CCO/N=C1/C(=C2/C(=O)Nc3ccccc32)Nc2ccccc21 | 21.5 µM (inactive) | 22.5 µM (inactive) | 24.5 µM (inactive) | 18.2 µM (inactive) | 11.2 µM (inactive) | 26.4 µM (inactive) | 11.9 µM (inactive) | 19.6 µM (inactive) | 29.6 µM (inactive) | 28.8 µM (inactive) |  | 17.7 µM (inactive) | 42.2 µM (inactive) | 7.18 µM (inactive) | 40.5 µM (inactive) | 12 µM (inactive) | 29.7 µM (inactive) | 30.3 µM (inactive) | 23.7 µM (inactive) | 12 µM (inactive) |
| O=c1[nH]c(Nc2nc3ccccc3[nH]2)nc2c1CCC2 | 44.7 µM (inactive) | > 100 µM (inactive) | 35.5 µM (inactive) | > 100 µM (inactive) |  | 49.9 µM (inactive) | > 100 µM (inactive) | > 100 µM (inactive) | > 100 µM (inactive) | > 100 µM (inactive) | 63.1 µM (inactive) | 74.3 µM (inactive) | > 100 µM (inactive) | > 100 µM (inactive) | > 100 µM (inactive) | 28 µM (inactive) | > 100 µM (inactive) | 64 µM (inactive) | > 100 µM (inactive) | > 100 µM (inactive) |
| COC(=O)C1C=CN(N(C)C)C2=C1C(=O)c1c(O)cccc1C2=O (stereo not given) | 2.62 µM (inactive) | 2.47 µM (inactive) | 1.99 µM (inactive) | 1.5 µM (inactive) | 2.79 µM (inactive) | 2.68 µM (inactive) | 2.1 µM (inactive) | 1.69 µM (inactive) | 0.429 µM (active) | 0.422 µM (active) | 1.87 µM (inactive) | 1.63 µM (inactive) | 2.22 µM (inactive) | 2.31 µM (inactive) | 2.34 µM (inactive) | 0.152 µM (active) | 2.28 µM (inactive) | 3.29 µM (inactive) |  | 3.82 µM (inactive) |
| COC(=O)c1ccc(Oc2nc3ccc(C(F)(F)F)cc3nc2-c2ccccc2)cc1 | > 100 µM (inactive) | > 100 µM (inactive) | > 100 µM (inactive) | > 100 µM (inactive) | 55.5 µM (inactive) | > 100 µM (inactive) | > 100 µM (inactive) |  | > 100 µM (inactive) | > 100 µM (inactive) | > 100 µM (inactive) | > 100 µM (inactive) | > 100 µM (inactive) |  |  | 92.3 µM (inactive) | > 100 µM (inactive) | > 100 µM (inactive) | > 100 µM (inactive) | > 100 µM (inactive) |
| CCOc1ccc2nc3nc(O)nc(C)c3c(NCCCN(CC)CC)c2c1 | > 100 µM (inactive) | > 100 µM (inactive) | > 100 µM (inactive) | > 100 µM (inactive) | > 100 µM (inactive) | > 100 µM (inactive) | > 100 µM (inactive) | > 100 µM (inactive) | > 100 µM (inactive) | > 100 µM (inactive) | > 100 µM (inactive) | > 100 µM (inactive) | > 100 µM (inactive) | > 100 µM (inactive) | > 100 µM (inactive) |  | > 100 µM (inactive) | > 100 µM (inactive) | > 100 µM (inactive) | > 100 µM (inactive) |
